Experimental data reported in the supplement of paper PMC10307832.

Experiments:
Assay in all cases: relative viability (nuclei count vs DMSO), 5 days (fraction); higher = more cells survive
BI-2536 + Navitoclax = compound: CC[C@@H]1C(=O)N(C)c2cnc(Nc3ccc(C(=O)NC4CCN(C)CC4)cc3OC)nc2N1C1CCCC1 [BI-2536] + CC1(C)CCC(c2ccc(Cl)cc2)=C(CN2CCN(c3ccc(C(=O)NS(=O)(=O)c4ccc(N[C@H](CCN5CCOCC5)CSc5ccccc5)c(S(=O)(=O)C(F)(F)F)c4)cc3)CC2)C1 [Navitoclax] (partner 0.5 µM)
Method in brief: (§1)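 Values are medians from duplicate plates. Each reflects relative viability, defined as the nuclei count of treated wells over that of vehicle wells. Lung cancer cell lines in 1536-well plates were pin-tool dosed one day after seeding with one drug alone or with a fixed anchor-drug dose plus five library-drug doses (not always all listed) in √10 steps, then fixed, stained and imaged at 4× after 5 days.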

BI-2536 + Palbociclib = compound: CC[C@@H]1C(=O)N(C)c2cnc(Nc3ccc(C(=O)NC4CCN(C)CC4)cc3OC)nc2N1C1CCCC1 [BI-2536] + CC(=O)c1c(C)c2cnc(Nc3ccc(N4CCNCC4)cn3)nc2n(C2CCCC2)c1=O [Palbociclib] (partner 0.5 µM)
Method in brief: as §1

[1] = compound: CC1CC(=O)N(C2=CN=C(N=C2N1C3CCCC3)NC4=C(C=C(C=C4)C(=O)NC5CCN(CC5)C)OC)C [NPK76-II-72-1] + Cc1cc(Nc2cc(N3CCN(C)CC3)nc(Sc3ccc(NC(=O)C4CC4)cc3)n2)n[nH]1 [Tozasertib] (partner 0.1 µM)
Method in brief: as §1

BI-2536 + Linsitinib = compound: CC[C@@H]1C(=O)N(C)c2cnc(Nc3ccc(C(=O)NC4CCN(C)CC4)cc3OC)nc2N1C1CCCC1 [BI-2536] + C[C@]1(O)C[C@@H](c2nc(-c3ccc4ccc(-c5ccccc5)nc4c3)c3c(N)nccn32)C1 [Linsitinib] (partner 1 µM)
Method in brief: as §1

Cell Line | relative viability (BI-2536 + Navitoclax; first compound 0.01 µM) | relative viability (BI-2536 + Navitoclax; first compound 0.03162 µM) | relative viability (BI-2536 + Navitoclax; first compound 0.1 µM) | relative viability (BI-2536 + Navitoclax; first compound 0.3162 µM) | relative viability (BI-2536 + Navitoclax; first compound 1 µM) | relative viability (BI-2536 + Palbociclib; first compound 0.01 µM) | relative viability (BI-2536 + Palbociclib; first compound 0.03162 µM) | relative viability (BI-2536 + Palbociclib; first compound 0.1 µM) | relative viability (BI-2536 + Palbociclib; first compound 0.3162 µM) | relative viability (BI-2536 + Palbociclib; first compound 1 µM) | relative viability ([1]; first compound 0.01 µM) | relative viability ([1]; first compound 0.03162 µM) | relative viability ([1]; first compound 0.1 µM) | relative viability ([1]; first compound 0.3162 µM) | relative viability ([1]; first compound 1 µM) | relative viability (BI-2536 + Linsitinib; first compound 0.01 µM) | relative viability (BI-2536 + Linsitinib; first compound 0.03162 µM) | relative viability (BI-2536 + Linsitinib; first compound 0.1 µM) | relative viability (BI-2536 + Linsitinib; first compound 0.3162 µM) | relative viability (BI-2536 + Linsitinib; first compound 1 µM)
NCI-H1975 | 1.12 | 1.08 | 0.932 | 0.182 | 0.17 | 0.349 | 0.648 | 0.461 | 0.14 | 0.158 | 0.731 | 0.893 | 0.673 | 0.665 | 0.912 | 0.948 | 0.861 | 1.03 | 0.192 | 0.147
CAL-12T | 1.22 | 1.17 | 0.834 | 0.164 | 0.144 | 0.431 | 0.351 | 0.249 | 0.127 | 0.132 | 0.33 | 0.324 | 0.314 | 0.25 | 0.363 | 0.913 | 0.808 | 0.852 | 0.165 | 0.286
NCI-H1623 |  |  |  |  |  |  |  |  |  |  | 0.467 | 0.434 | 0.353 | 0.341 | 0.467 |  |  |  |  | 
HCC-44 | 0.956 | 1.02 | 0.849 | 0.0892 | 0.095 | 1.05 | 0.959 | 0.947 | 0.404 | 0.312 | 0.875 | 1.16 | 0.962 | 0.795 | 1.04 | 0.672 | 0.72 | 0.602 | 0.12 | 0.0939
EKVX | 0.786 | 0.874 | 1.02 | 0.15 | 0.114 | 0.416 | 0.404 | 0.37 | 0.182 | 0.173 | 0.335 | 0.339 | 0.416 | 0.379 | 0.474 | 1.1 | 0.96 | 0.818 | 0.368 | 0.169
NCI-H1651 | 1.14 | 1.13 | 0.683 | 0.0829 | 0.055 | 0.5 | 0.505 | 0.514 | 0.41 | 0.0953 | 0.632 | 0.919 | 0.661 | 0.388 | 0.759 | 0.976 | 1.01 | 0.878 | 0.119 | 0.0863
NCI-H1944 | 1.05 | 1.05 | 1.05 | 0.377 | 0.157 | 0.304 | 0.329 | 0.308 | 0.173 | 0.15 | 0.255 | 0.283 | 0.245 | 0.228 | 0.257 | 1.35 | 1.27 | 1.17 | 1.02 | 0.283
NCI-H1703 | 1.13 | 0.349 | 0.136 | 0.142 | 0.104 |  |  |  |  |  |  |  |  |  |  | 0.77 | 0.296 | 0.574 | 0.117 | 0.0956
Calu-6 | 0.825 | 0.397 | 0.106 | 0.0854 | 0.0728 |  |  |  |  |  |  |  |  |  |  | 0.923 | 1.02 | 0.816 | 0.0855 | 0.0964
EBC-1 | 0.327 | 0.28 | 0.171 | 0.173 | 0.159 |  |  |  |  |  |  |  |  |  |  | 0.966 | 0.797 | 0.863 | 0.172 | 0.154
